Assay results taken from patent US8946413B2 (Pfizer Inc., priority 2008, dated 2015).
Like-named read-outs stand apart in the source and are kept apart here.

Target: T1, CCR2 (Homo sapiens, UniProt P41597)
T1 construct: (leukophoresis pack); host or cells: human peripheral blood mononuclear cells (PBMCs) from a normal human leukophoresis pack
Experiment: hCCR2 (125-I hMCP-1) small molecule binding assay on human PBMCs
Conditions: 125I-MCP-1, human PBMCs
Description: The CCR2 antagonist activity of compounds of the invention can be reported as the inhibitor concentration required for 50% inhibition (IC50 values) of specific binding in receptor binding assays using 125I-labeled MCP-1, as ligand, and Peripheral Blood Mononuclear Cells (PBMCs) prepared from normal human whole blood via density gradient centrifugation. Specific binding is defined as the total binding (e.g., total cpm on filters) minus the non-specific binding. Non-specific binding is defined as the amount of cpm still defected in the presence of excess unlabeled competitor (e.g., MCP-1),
Human PBMCs were used to test compounds of the invention in a binding assay. For example, 200,000 to 500,000 cells were incubated with 0.1 to 0.2 nM 125I-labeled MCP-1, with or without unlabeled competitor (10 nM MCP-1) or various concentrations of compounds to be tested. 125I-labeled MCP-1, were prepared by suitable methods or purchased from commercial vendors (Perkin Elmer, Boston Mass.). The binding reactions were performed in 50 to 250 μL of a binding buffer consisting of […] pH 7.2, and 0.1% BSA (bovine serum albumin), for 30 minutes at room temperature. The binding reactions were terminated by harvesting the membranes by rapid filtration through glass fiber filters (Perkin Elmer) which was presoaked in 0.3% polyethyleneimine or Phosphate Buffered Saline (PBS). The filters were rinsed with approximately 600 μL of binding buffer containing, 0.5 M NaCl or PBS, then dried, and the amount of bound radioactivity was determined by counting on a Gamma Counter (Perkin Elmer).
More specifically, the following assay may be employed to determine IC50 values for the compounds of the present invention.
hCCR2 (125-I hMCP-1) Small Molecule Binding Assay
Normal human leukophoresis pack contents, available from Biological Specialty Corporation, Colmar, Pa., is diluted 1:1 with PBS, divided into 50 ml conical tubes (preferably less than 40 mls per tube), and underlayed with 10 mls of Ficoll-Paque PLUS (GE Healthcare 17-1440-02). The tubes are centrifuged at 2800 rpm in a clinical centrifuge at room temperature for 30 mins, with no brake. The plasma layer is suctioned, and the buffycoat layer is collected. The collected buffycoat layer is washed twice with 50 mls PBS, and centrifuged at 1400 rpm with brake. The cells are counted. The cells are then diluted to 1×10^7 cells per ml in binding buffer.
96 well plates (such as, for example, Millipore MultiScreen96 plates) are pre-wet with about 100 μl binding buffer (RPMI+0.1% BSA+20 mM HEPES), and blotted just prior to compound addition.
5 μl of 50 μM test compounds in 100% DMSO are dotted onto U-bottom polypropylene 96-well plates.
245 μl per well of Binding Buffer is added to each well for 1 μM compound concentration in 2% DMSO.
50 μl of 1 μM compound is transferred to pre-wetted Millipore plates. 50 μl per well of 1×10E7 cells per ml of freshly prepared human PBMCs are added.
The samples are pre-incubated at room temperature for 30 minutes or 1 hour.
50 μl of 450 pM 125-I-hMCP-1 (Perkin-Elmer/NEN cat#NEX332025UC) is added for a final concentration 125-I-hMCP-1 of 150 pM per well.
The final test compound concentration is 0.333 uM in 150 μl total volume with 0.67% DMSO in all wells. Controls for this assay consist of 0% inhibition and 100% inhibition with 1 uM hMCP-1 (saturating conditions). All wells are run in duplicate. Controls may be in replicates of eight.
The samples are incubated at room temperature for 30 minutes.
The buffer is suctioned through the Millipore plates. The plates are washed three times with Wash Buffer (PRMI+0.1% BSA+20 mM HEPES+ 0.4 M NaC).
The plate underdrain is removed. The plate filters are allowed to dry. The filters are then punched out into plastic tubes.
Finally, the sample is counted an a Gamma Counter.
All IC50 plates were repeated for an n=2.
The following table summarizes the IC50 values identified through the described assay.

[1] = 30 min preincubation, read-out: IC50 (nM) 30 min preinc
[2] = 1 hr preincubation, read-out: IC50 (nM) 1 hr preinc

T1 sequence (P41597 whole entry): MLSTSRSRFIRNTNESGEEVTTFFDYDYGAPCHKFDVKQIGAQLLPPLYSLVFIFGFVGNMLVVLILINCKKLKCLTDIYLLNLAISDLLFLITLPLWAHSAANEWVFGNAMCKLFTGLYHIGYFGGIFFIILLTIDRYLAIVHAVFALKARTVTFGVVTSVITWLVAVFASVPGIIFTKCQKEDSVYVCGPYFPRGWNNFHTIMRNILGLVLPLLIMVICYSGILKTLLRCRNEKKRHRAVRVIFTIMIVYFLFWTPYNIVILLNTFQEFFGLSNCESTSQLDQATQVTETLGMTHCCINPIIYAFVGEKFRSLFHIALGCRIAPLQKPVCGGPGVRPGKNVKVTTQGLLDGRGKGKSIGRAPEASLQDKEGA

Structure (SMILES) | IC50 [1] | IC50 [2]
CO[C@@H]1COCC[C@@H]1N[C@@H]1CC[C@@](C(=O)N2C[C@@H]3C[C@H]2CN3c2cc(C(F)(F)F)cnn2)(C(C)C)C1 [Example 18, 1,5-anhydro-2,3-dideoxy-3-{[(1R,3S)-3-isopropyl-3-({(1S,4S)-5-[5-(trifluoromethyl)pyridazin-3-yl]-2,5-diazabicyclo[2.2.1]hept-2-yl}carbonyl)cyclopentyl]amino}-4-O-methyl-D-erythro-pentitol] | 37.6 nM | 8.5 nM
CO[C@@H]1COCC[C@@H]1N[C@@H]1CC[C@@](C(=O)N2C[C@@H]3C[C@H]2CN3c2cc(C(F)(F)F)nc(C(F)(F)F)c2)(C(C)C)C1 [Example 19, 1,5-anhydro-3-{[(1R,3S)-3-isopropyl-3-({(1S,4S)-5-[2,6-bis(trifluoromethyl)pyridin-4-yl]-2,5-diazabicyclo[2.2.1]hept-2-yl}carbonyl)-3-isopropylcyclopentyl]amino}-2,3-dideoxy-4-O-methyl-D-erythro-pentitol] | 20.4 nM | 6.35 nM
CO[C@@H]1COCC[C@@H]1N[C@@H]1CC[C@@](C(=O)N2C[C@@H]3C[C@H]2CN3c2nccc(C(F)(F)F)c2F)(C(C)C)C1 [Example 20, 1,5-anhydro-2,3-dideoxy-3-{[(1R,3S)-3-({(1S,4S)-5-[3-fluoro-4-(trifluoromethyl)pyridin-2-yl]-2,5-diazabicyclo[2.2.1]hept-2-yl}carbonyl)-3-isopropylcyclopentyl]amino}-4-O-methyl-D-erythro-pentitol] | 8.59 nM | 
CO[C@@H]1COCC[C@@H]1N[C@@H]1CC[C@](CC(F)F)(C(=O)N2C[C@@H]3C[C@H]2CN3c2cc(C(F)(F)F)ncn2)C1 [Example 24, 1,5-anhydro-2,3-dideoxy-3-{[(1R,3S)-3-(2,2-difluoroethyl)-3-({(1S,4S)-5-[6-(trifluoromethyl)pyrimidin-4-yl]-2,5-diazabicyclo[2.2.1]hept-2-yl}carbonyl)cyclopentyl]amino}-4-O-methyl-D-erythro-pentitol] | 79.7 nM | 8.87 nM
CO[C@@H]1COCC[C@@H]1N[C@@H]1CC[C@](CC(F)F)(C(=O)N2C[C@@H]3C[C@H]2CN3c2ccnc(C(F)(F)F)c2)C1 [Example 26, 1,5-anhydro-2,3-dideoxy-3-{[(1R,3S)-3-(2,2-difluoroethyl)-3-({(1S,4S)-5-[2-(trifluoromethyl)pyridin-4-yl]-2,5-diazabicyclo[2.2.1]hept-2-yl}carbonyl)cyclopentyl]amino}-4-O-methyl-D-erythro-pentitol] | 29.3 nM | 7.85 nM
CO[C@@H]1COCC[C@@H]1N[C@@H]1CC[C@](CC(F)F)(C(=O)N2C[C@@H]3C[C@H]2CN3c2ccnc(C(F)(F)F)n2)C1 [Example 30, 1,5-anhydro-2,3-dideoxy-3-{[(1R,3S)-3-(2,2-difluoroethyl)-3-({(1S,4S)-5-[2-(trifluoromethyl)pyrimidin-4-yl]-2,5-diazabicyclo[2.2.1]hept-2-yl}carbonyl)cyclopentyl]amino}-4-O-methyl-D-erythro-pentitol] | 32.9 nM | 11.8 nM
CO[C@@H]1COCC[C@@H]1N[C@@H]1CC[C@](CC(F)F)(C(=O)N2C[C@@H]3C[C@H]2CN3c2cc(C(F)(F)F)cnn2)C1 [Example 31, 1,5-anhydro-2,3-dideoxy-3-{[(1R,3S)-3-(2,2-difluoroethyl)-3-({(1S,4S)-5-[5-(trifluoromethyl)pyridazin-3-yl]-2,5-diazabicyclo[2.2.1]hept-2-yl}carbonyl)cyclopentyl]amino}-4-O-methyl-D-erythro-pentitol] |  | 6.35 nM
CO[C@@H]1COCC[C@@H]1N[C@@H]1CC[C@](CC(F)(F)F)(C(=O)N2C[C@@H]3C[C@H]2CN3c2cc(C(F)(F)F)ncn2)C1 [Example 32, 1,5-anhydro-2,3-dideoxy-4-O-methyl-3-{[(1R,3S)-3-(2,2,2-trifluoroethyl)-3-({(1S,4S)-5-[6-(trifluoromethyl)pyrimidin-4-yl]-2,5-diazabicyclo[2.2.1]hept-2-yl}carbonyl)cyclopentyl]amino}-D-erythro-pentitol] | 13.8 nM | 11.7 nM

Continued, values first:

IC50 [1] | IC50 [2] | Structure (SMILES)
 | 3.1 nM | CO[C@@H]1COCC[C@@H]1N[C@@H]1CC[C@@](C(=O)N2C[C@@H]3C[C@H]2CN3c2cc(C(F)(F)F)cc(C)n2)(C(C)C)C1 [Example 21, 1,5-anhydro-2,3-dideoxy-3-{[(1R,3S)-3-isopropyl-3-({(1S,4S)-5-[6-methyl-4-(trifluoromethyl)pyridin-2-yl]-2,5-diazabicyclo[2.2.1]hept-2-yl}carbonyl)cyclopentyl]amino}-4-O-methyl-D-erythro-pentitol]
 | 1.1 nM | CO[C@@H]1COCC[C@@H]1N[C@@H]1CC[C@@](C(=O)N2C[C@@H]3C[C@H]2CN3c2cccc(C(F)(F)F)c2)(C(C)C)C1 [Example 22, 1,5-anhydro-2,3-dideoxy-3-{[(1R,3S)-3-isopropyl-3-({(1S,4S)-5-[3-(trifluoromethyl)phenyl]-2,5-diazabicyclo[2.2.1]hept-2-yl}carbonyl)cyclopentyl]amino}-4-O-methyl-D-erythro-pentitol]
 | 0.94 nM | CO[C@@H]1COCC[C@@H]1N[C@@H]1CC[C@@](C(=O)N2C[C@@H]3C[C@H]2CN3c2cc(F)cc(C(F)(F)F)c2)(C(C)C)C1 [Example 23, 1,5-anhydro-2,3-dideoxy-3-{[(1R,3S)-3-({(1S,4S)-5-[3-fluoro-5-(trifluoromethyl)phenyl]-2,5-diazabicyclo[2.2.1]hept-2-yl}carbonyl)-3-isopropylcyclopentyl]amino}-4-O-methyl-D-erythro-pentitol]
6.58 nM | 0.93 nM | CO[C@@H]1COCC[C@@H]1N[C@@H]1CC[C@](CC(F)F)(C(=O)N2C[C@@H]3C[C@H]2CN3c2cc(C(F)(F)F)ccn2)C1 [Example 25, 1,5-anhydro-2,3-dideoxy-3-{[(1R,3S)-3-(2,2-difluoroethyl)-3-({(1S,4S)-5-[4-(trifluoromethyl)pyridin-2-yl]-2,5-diazabicyclo[2.2.1]hept-2-yl}carbonyl)cyclopentyl]amino}-4-O-methyl-D-erythro-pentitol]
16.2 nM | 2.04 nM | CO[C@@H]1COCC[C@@H]1N[C@@H]1CC[C@](CC(F)F)(C(=O)N2C[C@@H]3C[C@H]2CN3c2nccc(C(F)(F)F)n2)C1 [Example 27, 1,5-anhydro-2,3-dideoxy-3-{[(1R,3S)-3-(2,2-difluoroethyl)-3-({(1S,4S)-5-[4-(trifluoromethyl)pyrimidin-2-yl]-2,5-diazabicyclo[2.2.1]hept-2-yl}carbonyl)cyclopentyl]amino}-4-O-methyl-D-erythro-pentitol]
 | 1.88 nM | CO[C@@H]1COCC[C@@H]1N[C@@H]1CC[C@](CC(F)F)(C(=O)N2C[C@@H]3C[C@H]2CN3c2cccc(C(F)(F)F)n2)C1 [Example 28, 1,5-anhydro-2,3-dideoxy-3-{[(1R,3S)-3-(2,2-difluoroethyl)-3-({(1S,4S)-5-[6-(trifluoromethyl)pyridin-2-yl]-2,5-diazabicyclo[2.2.1]hept-2-yl}carbonyl)cyclopentyl]amino}-4-O-methyl-D-erythro-pentitol]
 | 2.75 nM | CO[C@@H]1COCC[C@@H]1N[C@@H]1CC[C@](CC(F)F)(C(=O)N2C[C@@H]3C[C@H]2CN3c2cncc(C(F)(F)F)n2)C1 [Example 29, 1,5-anhydro-2,3-dideoxy-3-{[(1R,3S)-3-(2,2-difluoroethyl)-3-({(1S,4S)-5-[6-(trifluoromethyl)pyrazin-2-yl]-2,5-diazabicyclo[2.2.1]hept-2-yl}carbonyl)cyclopentyl]amino}-4-O-methyl-D-erythro-pentitol]
